{
  "source": "patent US9969698B2",
  "about": "“Quinoxalinyl-piperazinamide methods of use” (REXAHN PHARMACEUTICALS, INC., priority 2015, dated 2018)",
  "key": {"[1]": {"test_system": "human non-small cell lung tumor xenografts (A549)", "assay": "Non-small cell lung cancer xenograft model", "type": "in vivo, mice", "settings": "oral", "from_the_text": "(§1) The efficacy of RX-5902 in human cancer xenograft mouse models is examined. Female nude mice (nu/nu, Harlan or CRL: NU(NCr)-Foxn1^nu, Charles River), 9-10 weeks old, with a body weight (BW) range of 15-30 g on day 1 of the study, are fed ad libitum water (reverse osmosis, 1 ppm C1), and NIH 31 Modified and Irradiated Lab Diet® consisting of 18.0% crude protein, 5.0% crude fat, and 5.0% crude fiber. The mice are housed on irradiated Enrich-o'Cobs™ Laboratory Animal Bedding in static microisolators on a 12-hour light cycle at 20-22° C. (68-72° F.) and 40-60% humidity. The study complies with the recommendations of the Guide for, Care and Use of Laboratory Animals with respect to restraint, husbandry, surgical procedures, feed and fluid regulation, and veterinary care.\n(§2) Various human tumor cell lines (e.g., HCT116, HT29, H460, H69, Caki-1, CaSki, MiaPaca2, BxPC3 and Colo 205 cells [ATCC, Manassas, Va., USA]) are cultured according to ATCC's instruction. […]\n(§3) The cells are harvested during exponential growth and re-suspended with phosphate buffered saline. Each test animal receives a subcutaneous (s.c.) injection of 5×10^6 tumor cells into the right flank and tumor growth is monitored as the average tumor size approaches the target range of 80-300 mm^3. […] Tumors and body weights are measured regularly until the study is terminated.\n(§4) Tumors are measured in two dimensions using calipers, and volume is calculated using the formula: […]\n(§5) Treatment efficacy is determined using data from Day 15. The MTV (n), the median tumor volume for the number of animals, n, on Day 15, is determined for each group. Percent tumor growth inhibition (% TGI) is defined as the difference between the MTV of the designated control group (vehicle administration) and the MTV of the drug-treated group, expressed as a percentage of the MTV of the control group: % TGI=[1−(MTVdrug treated/MTVcontrol)]×100 The data set for TGI analysis includes all animals in a group, except those that die due to treatment-related (TR) or non-treatment-related (NTR) causes. […]\n(§6) Animals are monitored individually for tumor growth until Day 71. […]"}, "[2]": {"assay": "Solubility assessment in solvents", "type": "physicochemical", "settings": "organic solvent or mixture, thermodynamic from solid", "experimental": "RX-5902 (ca. 2 mg) was weighed in a 1.5 ml clear glass vials. An aliquot of the corresponding solvent or solvent mixture was added at RT and solubility was assessed after 10 min as shown in Table 12. Solutions and suspensions were then placed into a shaking chamber at 50° C. for 10 more minutes. If no dissolution was observed, another aliquot of solvent was added and samples were placed in the shaking chamber at 50° C. for 10 more minutes. This procedure was repeated until dissolution was achieved or a maximum of 400 vol was added."}, "[3]": {"test_system": "human breast tumor xenografts (MDA-MB-231)", "assay": "Breast cancer xenograft model", "type": "in vivo, mice", "settings": "for TGI % (first value of the cell) / TGI % (second value of the cell): oral", "from_the_text": "as §1\nVarious human tumor cell lines (e.g., HCT116, HT29, H460, H69, Caki-1, CaSki, MiaPaca2, BxPC3 and Colo 205 cells [ATCC, Manassas, Va., USA]) are cultured according to ATCC's instruction. The tumor cells are cultured in tissue culture flasks in a humidified incubator at 37° C., in an atmosphere of 5% CO2 and 95% air.\nThe cells are harvested during exponential growth and re-suspended with phosphate buffered saline. Each test animal receives a subcutaneous (s.c.) injection of 5×10^6 tumor cells into the right flank and tumor growth is monitored as the average tumor size approaches the target range of 80-300 mm^3. When tumors reach the target size mice are randomized into several groups (n=10-20) and treatment with various regimens of RX-5902 or a positive (e.g., gemcitabine) or negative control (e.g.; vehicle, saline) is initiated. Tumors and body weights are measured regularly until the study is terminated.\nTumors are measured in two dimensions using calipers, and volume is calculated using the formula:\n[formula] where w=width and 1=length, in mm, of the tumor. Tumor weight may be estimated with the assumption that 1 mg is equivalent to 1 mm^3 of tumor volume.\nTreatment begins on Day 1 in eight groups of mice (n=10-20/group) with established subcutaneous tumors of a particular cell line. Each group is treated according to the study design. All doses are adjusted per body weight. Animals in each group are divided for efficacy and sampling purposes. There are also groups designated to vehicle control and no treatment for sampling purposes.\nTreatment efficacy is determined using data from Day 15. The MTV (n), the median tumor volume for the number of animals, n, on Day 15, is determined for each group. Percent tumor growth inhibition (% TGI) is defined as the difference between the MTV of the designated control group (vehicle administration) and the MTV of the drug-treated group, expressed as a percentage of the MTV of the control group: % TGI=[1−(MTVdrug treated/MTVcontrol)]×100 The data set for TGI analysis includes all animals in a group, except those that die due to treatment-related (TR) or non-treatment-related (NTR) causes. An agent that produces at least 60% TGI in this assay is considered to be potentially therapeutically active.\nAnimals are monitored individually for tumor growth until Day 71. The study protocol specifies a tumor growth delay assay based on the median time to endpoint (TTE) in a treated group versus the control group. Each animal is euthanized for tumor progression (TP) when its tumor reaches the 2000 mm^3 volume endpoint. The time to endpoint (TTE) for each mouse is calculated with the following equation:\n[formula] where b is the intercept and m is the slope of the line obtained by linear regression of a log-transformed tumor growth data set. The data set is comprised of the first observation that exceeds the study endpoint volume and the three consecutive observations that immediately precede the attainment of the endpoint volume. […] In instances in which the log-transformed calculated TTE precedes the day prior to reaching endpoint or exceeds the day of reaching tumor volume endpoint, a linear interpolation is performed to approximate TTE. […]"}, "[4]": {"test_system": "human colorectal tumor xenografts (Colo205)", "assay": "Colorectal cancer xenograft model", "type": "in vivo, mice", "settings": "oral", "from_the_text": "as §1, §2, §3, §4, §5, §6"}},
  "note": "Like-named read-outs stand apart in the source and are kept apart here. Marks after values point to notes of the source that are not given here.",
  "data": [
    {"smiles": "COc1cc(OC)cc(N2CCN(C(=O)Nc3nc4cc(F)ccc4nc3OC)CC2)c1", "note": "[RX-5902, 4-(3,5-dimethoxyphenyl)-N-(7-fluoro-3-methoxyquinoxalin-2-yl)piperazine-1-carboxamide]", "values": [
      {"measurement": "TGI %", "setting": "[1]; 160 mg/kg QWK", "result": 30, "unit": "%*"},
      {"measurement": "TGI %", "setting": "[1]; 320 mg/kg QWK", "result": 26, "unit": "%*"},
      {"measurement": "TGI %", "setting": "[1]; 600 mg/kg QWK", "result": 26, "unit": "%*"},
      {"measurement": "solubility at 10 min", "setting": "[2]; DMSO, 50 °C, read-out: Solubility at 50° C.", "result": "≥ 100", "unit": "mg/mL"},
      {"measurement": "solubility at 10 min", "setting": "[2]; DMSO, read-out: Solubility at RT", "result": "< 100", "unit": "mg/mL"},
      {"measurement": "solubility at 10 min", "setting": "[2]; MEK, 50 °C, read-out: Solubility at 50° C.", "result": "≥ 12.5", "unit": "mg/mL"},
      {"measurement": "solubility at 10 min", "setting": "[2]; MEK, read-out: Solubility at RT", "result": "< 100", "unit": "mg/mL"},
      {"measurement": "solubility at 10 min", "setting": "[2]; MIBK, 50 °C, read-out: Solubility at 50° C.", "result": "≥ 6.25", "unit": "mg/mL"},
      {"measurement": "solubility at 10 min", "setting": "[2]; MIBK, read-out: Solubility at RT", "result": "< 100", "unit": "mg/mL"},
      {"measurement": "solubility at 10 min", "setting": "[2]; THF, 50 °C, read-out: Solubility at 50° C.", "result": "≥ 25", "unit": "mg/mL"},
      {"measurement": "solubility at 10 min", "setting": "[2]; THF, read-out: Solubility at RT", "result": "< 100", "unit": "mg/mL"},
      {"measurement": "solubility at 10 min", "setting": "[2]; acetone, 50 °C, read-out: Solubility at 50° C.", "result": "≥ 12.5", "unit": "mg/mL"},
      {"measurement": "solubility at 10 min", "setting": "[2]; acetone, read-out: Solubility at RT", "result": "< 100", "unit": "mg/mL"},
      {"measurement": "solubility at 10 min", "setting": "[2]; acetonitrile, 50 °C, read-out: Solubility at 50° C.", "result": "≥ 12.5", "unit": "mg/mL"},
      {"measurement": "solubility at 10 min", "setting": "[2]; acetonitrile, read-out: Solubility at RT", "result": "< 100", "unit": "mg/mL"},
      {"measurement": "solubility at 10 min", "setting": "[2]; ethanol, 50 °C, read-out: Solubility at 50° C.", "result": "≥ 2.5", "unit": "mg/mL"},
      {"measurement": "solubility at 10 min", "setting": "[2]; ethanol, read-out: Solubility at RT", "result": "< 100", "unit": "mg/mL"},
      {"measurement": "solubility at 10 min", "setting": "[2]; ethyl acetate, 50 °C, read-out: Solubility at 50° C.", "result": "≥ 12.5", "unit": "mg/mL"},
      {"measurement": "solubility at 10 min", "setting": "[2]; ethyl acetate, read-out: Solubility at RT", "result": "< 100", "unit": "mg/mL"},
      {"measurement": "solubility at 10 min", "setting": "[2]; isopropanol-10% water, 50 °C, read-out: Solubility at 50° C.", "result": "≥ 2.5", "unit": "mg/mL"},
      {"measurement": "solubility at 10 min", "setting": "[2]; isopropanol-10% water, read-out: Solubility at RT", "result": "< 100", "unit": "mg/mL"},
      {"measurement": "solubility at 10 min", "setting": "[2]; methanol, 50 °C, read-out: Solubility at 50° C.", "result": "≥ 2.5", "unit": "mg/mL"},
      {"measurement": "solubility at 10 min", "setting": "[2]; methanol, read-out: Solubility at RT", "result": "< 100", "unit": "mg/mL"},
      {"measurement": "TGI % (first value of the cell)", "setting": "[3]; 160 mg/kg QWK", "result": 44, "unit": "%"},
      {"measurement": "TGI % (second value of the cell)", "setting": "[3]; 160 mg/kg QWK", "result": 39, "unit": "%"},
      {"measurement": "TGI % (first value of the cell)", "setting": "[3]; 320 mg/kg QWK", "result": 65, "unit": "%"},
      {"measurement": "TGI % (second value of the cell)", "setting": "[3]; 320 mg/kg QWK", "result": 82, "unit": "%"},
      {"measurement": "TGI % (first value of the cell)", "setting": "[3]; 600 mg/kg QWK", "result": 83, "unit": "%"},
      {"measurement": "TGI % (second value of the cell)", "setting": "[3]; 600 mg/kg QWK", "result": 165, "unit": "%"},
      {"measurement": "survival in treated mice", "setting": "[3]; oral, 160, 320 and 600 mg/kg weekly", "result": "extending the survival"},
      {"measurement": "TGI %", "setting": "[4]; 160 mg/kg QWK", "result": 0, "unit": "%*"},
      {"measurement": "TGI %", "setting": "[4]; 320 mg/kg QWK", "result": 13, "unit": "%*"},
      {"measurement": "TGI %", "setting": "[4]; 600 mg/kg QWK", "result": 33, "unit": "%*"}
    ]}
  ]
}
